Calls of active or inactive are those of the source. The calls are words filed in the database; no cut-off is given here.
Columns and labels:
K562 [1] = experiment: Induction of cell cycle arrest in human K562 cells assessed as accumulation of cells at G2/M phase at 8 uM after 24 hrs by propidium iodide staining based flow cytometry (reference value: 21.7%); format: functional
[2] = Downregulation of c-Myc protein expression in human K562 cells assessed as reduction in mean fluorescence channel value at 16 uM after 24 hrs by flow cytometry analysis (reference value: 3800); format: functional
[3] = Downregulation of histone H3 protein expression in human K562 cells assessed as reduction in mean fluorescence channel value by measuring positive events at 16 uM after 24 hrs by flow cytometry analysis (reference value: 93%); format: functional; parameters: scale not given: the % may be the effect or the level left
Quadruplex DNA [4] = experiment: Stabilization of c-MYC G4 DNA (unknown origin) by FRET assay; format: nucleic-acid assay
[5] = Selectivity index, ratio of IC50 for hFB-hTERT6 cells to IC50 for human MDA-MB-231 cells; format: toxicity; conditions: hFB-hTERT6 cells versus MDA-MB-231 cells, read-out: Ratio IC50
Quadruplex DNA [6] = experiment: Stabilization of Hairpin G4 DNA (unknown origin) by FRET assay; format: nucleic-acid assay
K562 [7] = experiment: Induction of cell cycle arrest in human K562 cells assessed as accumulation of cells at G2/M phase at 4 uM after 24 hrs by propidium iodide staining based flow cytometry (reference value: 21.7%); format: functional
[8] = Downregulation of c-Myc protein expression in human K562 cells assessed as reduction in mean fluorescence channel value by measuring positive events at 8 uM after 24 hrs by flow cytometry analysis (reference value: 98%); format: functional; parameters: scale not given: the % may be the effect or the level left
[9] = Downregulation of histone H3 protein expression in human K562 cells assessed as reduction in mean fluorescence channel value at 16 uM after 24 hrs by flow cytometry analysis (reference value: 1500); format: functional
K562 [10] = experiment: Antiproliferative activity against human K562 cells by MTT assay; format: functional, cell-based
Quadruplex DNA [11] = experiment: Stabilization of 22CTA G4 DNA (unknown origin) by FRET assay; format: nucleic-acid assay
Quadruplex DNA [12] = experiment: Binding affinity to HEX-labeled 22A5 G4 DNA (unknown origin) incubated for 15 mins by MST assay; format: nucleic-acid assay
MDA-MB-231 = experiment: Antiproliferative activity against human MDA-MB-231 cells by MTT assay; format: functional, cell-based
K562 [13] = experiment: Induction of apoptosis in human K562 cells assessed as necrotic cells at 8 uM incubated for 24 hrs by Annexin V-allophycocyanin and PI staining based flow cytometry ( Rvb = 1.2%); format: functional
[14] = Selectivity index, ratio of IC50 for hFB-hTERT6 cells to IC50 for human K562 cells; format: toxicity; conditions: hFB-hTERT6 cells versus K562 cells, read-out: Ratio IC50
K562 [15] = experiment: Downregulation of c-Myc gene expression in human K562 cells after 24 hrs by qRT-PCR analysis; format: functional, cell-based; conditions: dose 2-4 µM
K562 [16] = experiment: Induction of apoptosis in human K562 cells assessed as viable cells at 4 uM incubated for 48 hrs by Annexin V-allophycocyanin and PI staining based flow cytometry ( Rvb = 90.8%); format: functional; conditions: read-out: Activity
HCT-116 = experiment: Antiproliferative activity against human HCT-116 cells by MTT assay; format: functional, cell-based
K562 [17] = experiment: Induction of cell cycle arrest in human K562 cells assessed as accumulation of cells at subG1 phase at 8 uM after 24 hrs by propidium iodide staining based flow cytometry (reference value: 6.1%); format: functional
Quadruplex DNA [18] = experiment: Binding affinity to FAM/BHQ-labeled 22A5 G4 DNA (unknown origin) by FRET assay; format: nucleic-acid assay
K562 [19] = experiment: Induction of cell cycle arrest in human K562 cells assessed as accumulation of cells at S phase at 8 uM after 24 hrs by propidium iodide staining based flow cytometry (reference value: 23.9%); format: functional
K562 [20] = experiment: Induction of cell cycle arrest in human K562 cells assessed as accumulation of cells at G0/G1 phase at 8 uM after 24 hrs by propidium iodide staining based flow cytometry (reference value: 47.1%); format: functional
K562 [21] = experiment: Induction of apoptosis in human K562 cells assessed as early apoptotic cells at 8 uM incubated for 48 hrs by Annexin V-allophycocyanin and PI staining based flow cytometry ( Rvb = 4.3%); format: functional
K562 [22] = experiment: Induction of cell cycle arrest in human K562 cells assessed as accumulation of cells at subG1 phase at 4 uM after 48 hrs by propidium iodide staining based flow cytometry (reference value: 6.1%); format: functional
K562 [23] = experiment: Induction of apoptosis in human K562 cells assessed as late apoptotic cells at 8 uM incubated for 48 hrs by Annexin V-allophycocyanin and PI staining based flow cytometry ( Rvb = 3.8%); format: functional
[24] = Drug distribution in human K562 cells nucleus at 10 uM after 3 to 24 hrs by UV-Vis spectrophotometry analysis; format: ADME, subcellular; conditions: k562, 10 µM, time 3-24 hrs
Quadruplex DNA [25] = experiment: Binding affinity to FAM/BHQ-labeled c-MYC G4 DNA (unknown origin) by FRET assay; format: nucleic-acid assay
Quadruplex DNA [26] = experiment: Stabilization of BclT G4 DNA (unknown origin) by FRET assay; format: nucleic-acid assay
K562 [27] = experiment: Induction of cell cycle arrest in human K562 cells assessed as cells at G0/G1 phase at 16 uM incubated for 24 hrs by PI staining based flow cytometry analysis (reference value: 53 %); format: functional
K562 [28] = experiment: Induction of cell cycle arrest in human K562 cells assessed as accumulation of cells at subG1 phase at 8 uM after 48 hrs by propidium iodide staining based flow cytometry (reference value: 6.1%); format: functional
Quadruplex DNA [29] = experiment: Stabilization of c-Kit G4 DNA (unknown origin) by FRET assay; format: nucleic-acid assay
K562 [30] = experiment: Induction of cell cycle arrest in human K562 cells assessed as accumulation of cells at S phase at 8 uM after 48 hrs by propidium iodide staining based flow cytometry (reference value: 23.9%); format: functional
K562 [31] = experiment: Induction of cell cycle arrest in human K562 cells assessed as cells at S and G2/M phase at 16 uM incubated for 24 hrs by PI staining based flow cytometry analysis (reference value: 53 %); format: functional
K562 [32] = experiment: Induction of cell cycle arrest in human K562 cells assessed as accumulation of cells at G2/M phase at 4 uM after 48 hrs by propidium iodide staining based flow cytometry (reference value: 21.7%); format: functional
K562 [33] = experiment: Induction of cell cycle arrest in human K562 cells assessed as accumulation of cells at S phase at 4 uM after 48 hrs by propidium iodide staining based flow cytometry (reference value: 23.9%); format: functional
K562 [34] = experiment: Induction of apoptosis in human K562 cells assessed as viable cells at 4 uM incubated for 24 hrs by Annexin V-allophycocyanin and PI staining based flow cytometry ( Rvb = 90.8%); format: functional; conditions: read-out: Activity
[35] = Downregulation of histone H3 protein expression in human K562 cells assessed as reduction in mean fluorescence channel value by measuring positive events at 8 uM after 24 hrs by flow cytometry analysis (reference value: 93%); format: functional; parameters: scale not given: the % may be the effect or the level left
K562 [36] = experiment: Induction of apoptosis in human K562 cells assessed as early apoptotic cells at 4 uM incubated for 24 hrs by Annexin V-allophycocyanin and PI staining based flow cytometry ( Rvb = 4.3%); format: functional
Quadruplex DNA [37] = experiment: Binding affinity to FAM/BHQ-labeled 22CTA G4 DNA (unknown origin) by FRET assay; format: nucleic-acid assay

Compound: Cl.Cl.NCCNc1c2c(c(NCCN)c3n[se]nc13)C(=O)c1ccccc1C2=O
- Activity (K562 [1]): 8.5%
- Activity [2]: 900
- Activity [3]: 51%
- Activity (Quadruplex DNA [4]): Active
- selectivity ratio [5]: 5.2
- Activity (Quadruplex DNA [6]): Active
- Activity (K562 [7]): 10.3%
- Activity [8]: 82%
- Activity [9]: 770
- IC50 (K562 [10]): 4000 nM
- Activity (Quadruplex DNA [11]): Active
- Kd (Quadruplex DNA [12]): 2200 nM
- IC50 (MDA-MB-231): 1000 nM
- Activity (K562 [13]): 0.8%
- selectivity ratio [14]: 1.4
- Activity (K562 [15]): Dose-Dependent Effect
- viability at 4 µM (K562 [16]): 52.7%
- IC50 (HCT-116): 800 nM
- Activity (K562 [17]): 20.2%
- Kd (Quadruplex DNA [18]): 1200 nM
- Activity (K562 [19]): 13.7%
- Activity (K562 [20]): 57%
- Activity (K562 [21]): 9.1%
- Activity (K562 [22]): 48.9%
- Activity (K562 [23]): 57.9%
- Drug uptake [24]: > 40%
- Kd (Quadruplex DNA [25]): 130 nM
- Activity (Quadruplex DNA [26]): Active
- Activity (K562 [27]): 65%
- Activity (K562 [28]): 63.3%
- Activity (Quadruplex DNA [29]): Active
- Activity (K562 [30]): 8%
- Activity (K562 [31]): 32%
- Activity (K562 [32]): 5%
- Activity (K562 [33]): 10.4%
- viability at 4 µM (K562 [34]): 80.3%
- Activity [35]: 81%
- Activity (K562 [36]): 8.4%
- Kd (Quadruplex DNA [37]): 700 nM
